PubChem BioAssay (NCI)
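In this assay, cells in 96-well plates receive the compound at five concentrations for 48 hours. Endpoints are linearly interpolated between the surrounding concentrations. GI50: concentration for 50% inhibition of growth. TGI marks complete inhibition of growth.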

Key:
Experiment in all cases: inhibition of tumour cell growth, NCI panel, 48 h
A498 renal = test system: A498 renal
UACC-62 melanoma = test system: UACC-62 melanoma
HOP-62 NSCLC = test system: HOP-62 NSCLC
SK-OV-3 ovarian = test system: SK-OV-3 ovarian
SK-MEL-5 melanoma = test system: SK-MEL-5 melanoma
U251 CNS = test system: U251 CNS
DLD-1 colon = test system: DLD-1 colon
SK-MEL-2 melanoma = test system: SK-MEL-2 melanoma
HOP-18 NSCLC = test system: HOP-18 NSCLC
T-47D breast = test system: T-47D breast

Structure (SMILES)	TGI (A498 renal) [µM]	TGI (UACC-62 melanoma) [µM]	TGI (HOP-62 NSCLC) [µM]	TGI (SK-OV-3 ovarian) [µM]	TGI (SK-MEL-5 melanoma) [µM]	TGI (U251 CNS) [µM]	TGI (DLD-1 colon) [µM]	TGI (SK-MEL-2 melanoma) [µM]	TGI (HOP-18 NSCLC) [µM]	GI50 (A498 renal) [µM]	GI50 (UACC-62 melanoma) [µM]	GI50 (HOP-62 NSCLC) [µM]	GI50 (SK-MEL-2 melanoma) [µM]	GI50 (SK-OV-3 ovarian) [µM]	GI50 (SK-MEL-5 melanoma) [µM]	GI50 (U251 CNS) [µM]	GI50 (HOP-18 NSCLC) [µM]	GI50 (DLD-1 colon) [µM]	GI50 (T-47D breast) [µM]	TGI (T-47D breast) [µM]
CC1(C)Oc2ccccc2[N+]([O-])=C1c1ccccc1	> 100	> 100	> 100	> 100	> 100	> 100	> 100	–	–	–	–	–	–	–	–	–	–	–	–	–
N/C(=N\N=C\c1ccc(O)c(O)c1)NO	> 100	> 100	> 100	> 100	> 100	> 100	> 100	> 100	> 100	–	–	–	–	–	–	–	–	–	–	–
CCC(C)(C)NS(=O)(=O)c1ccccc1	> 100	> 100	> 100	> 100	> 100	> 100	> 100	> 100	–	–	–	–	–	–	–	–	–	–	–	–
CCOC(=O)NC(=O)c1cn(C2OC(COC(=O)CCCCCCCCC(=O)OCC3OC(n4cc(C(=O)NC(=O)OCC)c(=O)[nH]c4=O)C4OC(C)(C)OC34)C3OC(C)(C)OC32)c(=O)[nH]c1=O (stereo not drawn)	> 100	> 100	> 100	–	> 100	–	> 100	> 100	> 100	–	–	–	–	–	–	–	–	–	–	–
N.N.NCCCCCN.O=C([O-])CC(=O)[O-].O=C([O-])CC(=O)[O-].[Pt+4].[Pt+4]	> 100	> 100	> 100	> 100	> 100	> 100	> 100	> 100	> 100	> 100	18.7	43	> 100	> 100	> 100	> 100	> 100	> 100	–	–
CCCCCN(CCCCC)C(=O)[C@H](CCC(=O)OCc1ccccc1)NC(=O)c1cc2ccccc2[nH]1	> 100	> 100	> 100	> 100	–	> 100	> 100	> 100	> 100	–	–	–	–	–	–	–	–	–	–	–
Cc1ccc(-c2cc(=O)c3cc(C)c(C)c(C(=O)O)c3o2)cc1[N+](=O)[O-]	–	> 100	–	> 100	> 100	> 100	> 100	> 100	> 100	–	–	–	–	–	–	–	–	–	–	–
COc1c(Cl)[c]([Hg][O]C(C)=O)c(NCC(C)=O)c(OC)[c]1[Hg][O]C(C)=O	71	–	37.3	45.6	26.1	21.9	26.8	24.9	–	26.7	–	22.3	11.9	24.5	11.1	10	–	12.2	–	–
C/C=C(\C)C(=O)N1c2ccccc2CC1c1c(C)[nH]c2ccccc12 (stereo not drawn)	> 100	> 100	> 100	> 100	–	> 100	> 100	69.6	–	–	–	–	–	–	–	–	–	–	–	–
CC(C)C1NC(=O)[C@H](C)OC(=O)[C@@H](C(C)C)NC(=O)[C@@H](C)OC(=O)C(C(C)C)NC(=O)[C@H](C)OC1=O (stereo partly drawn)	> 100	> 100	> 100	> 100	> 100	> 100	> 100	> 100	> 100	–	–	–	–	–	–	–	–	–	–	–
Nc1nc(CC2(O)CCCCC2)cc(-c2ccccc2)n1	> 73.3	> 100	> 80.6	> 100	> 57.4	> 100	> 100	> 64.8	> 90	–	–	–	–	–	–	–	–	–	–	–
O=C(COC(=O)c1cccc2c(=O)c3ccccc3[nH]c12)Nc1ccc(S(=O)(=O)Nc2ncccn2)cc1	> 100	39.7	> 100	> 100	> 100	56.3	> 100	–	–	–	–	–	–	–	–	–	–	–	–	–
NC(Cc1c[nH]c2cc(F)ccc12)C(=O)O (stereo not drawn)	> 2500	> 2500	> 2500	> 2500	1140	> 2500	–	> 2500	–	> 2500	1700	961	1910	877	557	872	–	–	> 2500	> 2500
O=C(CC1SC(=Nc2ccccc2Cl)NC1=O)Nc1ccc(Cl)cc1 (stereo not drawn)	> 100	> 100	> 100	> 100	> 100	> 100	> 100	> 100	–	–	–	–	–	–	–	–	–	–	–	–
CC(=Nc1ccccc1)C1=C(O)C(Cc2ccc(F)cc2)NC1=O (stereo not drawn)	5.04	> 100	> 100	9.01	> 100	> 100	–	> 100	–	0.444	0.664	0.959	0.423	1.23	0.472	0.825	–	–	0.793	> 100
Cc1ccc(-n2c3c(c4c(CN)c(O)ccc42)CCc2ccccc2C3=O)cc1	16.8	27	31.7	34.4	3.01	32.5	–	26.9	–	4.17	14	17.2	12	18.1	1.61	17.2	–	–	22.8	50.1
COc1cc2ccc3c4cc(OC)c(OC(C)C)cc4c[n+](C)c3c2cc1OC	–	> 100	> 100	> 100	> 100	> 100	> 100	55.6	88.6	–	–	–	–	–	–	–	–	–	–	–
COc1ccc(/C=C2\CCc3ccccc3C2=O)cc1OC	> 100	34.1	> 100	78.9	30.9	> 100	56.4	83.9	> 100	–	–	–	–	–	–	–	–	–	–	–
[N-]=[N+]=NC1C2CC3CC(C2)CC1C3 (stereo not drawn)	> 100	> 100	> 100	> 100	> 100	> 100	–	> 100	> 100	–	–	–	–	–	–	–	–	–	–	–
S=C1SCN(C2CCCCCCCCCCC2)CN1C1CCCCCCCCCCC1	> 100	> 100	> 100	> 100	> 100	> 100	–	> 100	–	–	–	–	–	–	–	–	–	–	–	> 100

Structure (SMILES)	TGI (A498 renal) [µM]	TGI (UACC-62 melanoma) [µM]	TGI (HOP-62 NSCLC) [µM]	TGI (SK-OV-3 ovarian) [µM]	TGI (SK-MEL-5 melanoma) [µM]	TGI (U251 CNS) [µM]	TGI (DLD-1 colon) [µM]	TGI (SK-MEL-2 melanoma) [µM]	TGI (HOP-18 NSCLC) [µM]	GI50 (A498 renal) [µM]	GI50 (UACC-62 melanoma) [µM]	GI50 (HOP-62 NSCLC) [µM]	GI50 (SK-MEL-2 melanoma) [µM]	GI50 (SK-OV-3 ovarian) [µM]	GI50 (SK-MEL-5 melanoma) [µM]	GI50 (U251 CNS) [µM]	GI50 (HOP-18 NSCLC) [µM]	GI50 (DLD-1 colon) [µM]	GI50 (T-47D breast) [µM]	TGI (T-47D breast) [µM]
COc1ccc2c(c1OC)C(C=C(c1ccccc1)c1ccccc1)CN(C)C2 (stereo not drawn)	65	40.2	62.2	> 100	29.7	57.3	76.8	–	67.7	–	–	–	–	–	–	–	–	–	–	–
CN=C(N)NC	> 100	> 100	> 100	> 100	> 100	> 100	> 100	> 100	> 100	–	–	–	–	–	–	–	–	–	–	–
C/C(=N\NS(=O)(=O)c1c(C)cc(C)cc1C)c1ccc[n+]([O-])n1	86.6	31.5	> 100	> 100	> 100	> 100	21	–	47.3	–	–	–	–	–	–	–	–	–	–	–
CCOc1ccc(N=Cc2ccc3ccccc3n2)cc1	> 100	> 100	> 100	> 100	> 100	> 100	> 100	> 100	> 100	–	–	–	–	–	–	–	–	–	–	–
CC(=O)Oc1cc(Cl)c(OC(C)=O)c2c(OC(C)=O)c(C)c(O[Si](C)(C)C(C)(C)C)cc12	4.77	–	34	–	14.6	6.78	3.92	42.6	–	–	–	–	–	–	–	–	–	–	–	–
O=C(Nc1ccc(-n2ccc3c(NC(=O)c4ccccc4)nccc32)cc1)c1ccc(N2CCOCC2)c(C(F)(F)F)c1	26.6	21.7	23.1	28.2	10.8	8.16	–	15.8	–	2.19	0.331	1.74	0.236	0.509	0.0928	0.0441	–	–	2.65	> 41.1
Fc1ccc2c(c1)cc1ccc3cccc4ccc2c1c34	> 100	> 100	> 100	> 100	> 100	> 100	> 100	> 100	> 100	–	–	–	–	–	–	–	–	–	–	–
Cc1nc(-n2nc(-c3ccccc3)cc2-c2ccccc2)sc1C(=O)/C=C/c1ccc(Cl)cc1	83.3	28.7	34.4	> 100	31	36.9	26.8	35.7	29.6	–	–	–	–	–	–	–	–	–	–	–
COC(=O)c1ccc(/C=C/S(=O)(=O)c2ccccc2)cc1	> 100	> 100	> 100	> 100	> 100	> 100	> 100	> 100	–	–	–	–	–	–	–	–	–	–	–	–
COc1ccc(-c2cc(-c3ccc(Cl)cc3)nc(SCCCCCCC(=O)NO)n2)cc1	3.8	3.51	15	8.54	2.52	5.9	–	> 50	–	1.28	1.13	1.66	5.73	1.62	1.14	1.37	–	–	1.42	> 50
NC(N)=NC(N)=Nc1ccc(S(N)(=O)=O)cc1	> 100	> 100	> 100	> 100	> 100	> 100	–	> 100	–	–	–	–	–	–	–	–	–	–	–	> 100
CCCc1n(Cc2ccc3ccccc3n2)cc[n+]1Cc1ccc2ccccc2c1	6.68	2.39	5.38	4.02	1.69	2.54	–	2.85	–	1.81	0.574	1.63	1.06	1.26	0.466	0.38	–	–	0.307	5.55
CC(C)=CCc1c(O)c(C(=O)CC(C)C)c(O)c2c(-c3ccccc3)cc(=O)oc12	28.8	13.5	> 50	35.1	12.3	> 50	–	28.7	–	7.4	2.2	15.4	6.18	10.3	3.38	9.59	–	–	11.3	42.1
CCOC(=O)C(=O)C(/C(=N/N(C)C)C(=O)Nc1ccc(C)cc1C)c1nc2ccccc2[nH]c1=O (stereo not drawn)	> 100	> 100	> 100	> 100	> 100	> 100	–	> 100	–	–	–	–	–	–	–	–	–	–	–	> 100
CC(CCC(=O)O)c1ccc(Br)cc1 (stereo not drawn)	–	> 100	> 100	> 100	> 100	> 100	> 100	> 100	> 100	–	–	–	–	–	–	–	–	–	–	–
N#Cc1ccc(NC(=O)Nc2nc3ccc(OC(F)(F)F)cc3s2)cc1	4.41	3.87	8.12	11.1	2.54	11.4	–	4.25	–	0.473	0.737	2.52	1.78	2.65	1.15	1.43	–	–	0.428	5.8
C=C(C)[C@@H]1CC[C@]2(CN)CC[C@]3(C)[C@H](CC[C@@H]4[C@@]5(C)CCC(N)[C@@](C)(CO)[C@@H]5CC[C@]43C)[C@@H]12 (stereo partly drawn)	2.79	3.33	3.24	3.2	3.16	3.01	–	3.44	–	1.44	1.85	1.78	1.89	1.8	1.72	1.61	–	–	1.93	3.84
CN1CCN(Cc2ccc(NC(=O)c3cccc(C#Cc4c(N)ncc5ccc(F)cc45)c3)cc2C(F)(F)F)CC1	1.26	1.4	1.65	2.99	1.68	1.6	–	2.09	–	0.578	0.698	0.795	0.923	1.19	0.896	0.833	–	–	1.05	2.65
CC(C)(C)C1CCC(=O)C(C(O)CC2CC(=O)N(c3ccccc3)C(=O)C2)C1 (stereo not drawn)	> 100	> 100	> 100	> 100	–	> 100	> 100	–	> 100	–	–	–	–	–	–	–	–	–	–	–
